According to patent US9889092B2, “Low density lipoprotein nanocarriers for targeted delivery of omega-3 polyunsaturated fatty acids to cancer” (The Board of Regents of the University of Texas System, priority 2013, dated 2018):

Tests used:
[1] = Oxidative stability of LDL nanoparticles (peroxide value, HPLC DHA content); assay type: physicochemical; settings: under air at 55° C. for 5 hrs
Excerpt: FIGS. 4A-D. Oxidative stability: (FIG. 4A) HPLC determination of DHA content in LDL nanoparticles and DHA in heptane; (**) p<0.01 DHA in heptane versus LDL-DHA, after 14 days; (***) p<0.001, DHA in heptane versus LDL-DHA, after 21 and 28 days. (FIG. 4B) Peroxide indices of LDL, DHA in heptane, and LDL-DHA nanoparticles. Samples from FIG. 4A and FIG. 4B were stored at ambient conditions and were subjected to HPLC or peroxide analysis at baseline, 7, 14, 21, and 28 days; (**) p<0.01, DHA in heptane versus LDL-DHA after 14 days; (***) p<0.001, LDL or DHA in heptane versus LDL-DHA after 21 and 28 days; (****) p<0.0001, LDL versus LDL-DHA, after 28 days. […] DHA content is expressed as a percentage of baseline control. The peroxide index is expressed as mEq of peroxide/Kg of lipid.
Oxidative stability of LDL nanoparticles. […] Absorbance of red color formed from the presence of ferric ion was measured at 500 nm using UV-visible spectrophotometer (UV 1800, Shimadzu, USA) and the concentration was determined using a calibration curve of ferric chloride (FeCl3). […] The peroxide value was calculated using the following formula: PV=[Fe3+]/(55.84×g of lipids×2) where 55.84 is the molecular weight of iron. Results were expressed as mEq peroxide/kg lipid.

TIB-75 cells = test: Cell toxicity assay (MTS), TIB-75; assay type: cell-based, mouse; settings: 40 μM LDL-DHA with 100 or 200 μM Vitamin E, 72 hours
Method: Cell culture. The mouse liver cell line TIB-73 (BNL CL.2) and its malignant counterpart TIB-75 (BNL 1MEA.7R.1) were obtained from ATCC (Manassas, Va.) and cultured in Dulbeco's modified Eagle's medium (DMEM) supplemented with 10% fetal bovine serum (FBS). Cells were grown at 37° C. in an atmosphere of 5% CO2 in a humidified incubator.
Cell toxicity assay (MTS). Each cell type was seeded in 96-well plates (2×10^3 cells/well). After 48 hrs of culture, the cells received various concentrations of the LDL-DHA nanoparticles ranging from 0 to 100 μM (DHA). For controls (LDL-OA/TO) dosing went as high as 200 μM. At the end of the 72 hr treatment period, the cell viability was measured by the MTS assay as recommended by the manufacturer. In brief, 20 μL MTS solution was added to each well and cells were incubated at 37° C. for 4 hrs followed by absorbance readings at 490 nm. The relative cell viability is expressed as a percentage of the non treated controls.

Row | Molecule | oxidative stability in final stress test [1] | effect of co-incubation on LDL-DHA cytotoxicity in TIB-75 cells (TIB-75 cells)
1 | CC/C=C\C/C=C\C/C=C\C/C=C\C/C=C\C/C=C\CCC(=O)O [DHA in heptane, docosahexaenoic acid] | significant degradative peroxidation | –
2 | vitamin E | – | effectively abrogate the cytotoxicity of LDL-DHA
